Measurements reported in patent US6127387A, “Use of CD4-binding small molecules to inhibit immune responses” (Thomas Jefferson University, priority 1997, dated 2000).
“Also recorded” adds a separate entry of the source.

What was measured:
[1] = system: SJL mice; assay: EAE inhibition in vivo (PLP-induced acute EAE); design: species or system mouse; conditions: single i.v. injection of 50 μg in 0.25% DMSO on day 12 post-challenge, FIG. 3
Description: The lead organic compounds were tested for in vivo immunosuppressive activity in murine EAE, an animal model for multiple sclerosis. An acute form of EAE was induced in SJL mice by subcutaneous challenge with proteolipid (PLP) epitope, MacRae, B. L., et al., 1995, J. Neuroimmunol. 60:17-28, (100 μg in 0.15 ml PBS emulsified in an equal volume of Complete Freund's Adjuvant) on days 0 and 7. Pertussis (Michigan Biological Products, Lansing Mich.) was administered 30 min after antigen injection on day 7 (0.25 ml containing 5×10^9 inactivated organisms, i.v.). Clinical symptoms of EAE were evaluated based on a 0-5 scale of ascending severity of symptoms, as previously described. Korngold, R., et al., 1986, Immunogenetics 24:309-315. The organic compounds were administered by a single i.v. injection of 50 μg of the compound in 0.25% DMSO (the compounds were not soluble in water alone) on day 12 post-challenge.

[2] = system: (B6×CBA)F1 irradiated recipient mice; assay: CD4+ T cell-mediated graft-versus-host disease lethality; type: in vivo, mouse; conditions: 100 μg i.v. in 0.5% DMSO on days 0, 3 and 6 post-transplant, vs untreated control, p<0.001, FIG. 5
Description: The lead organic compound TJU103 (N-(3-indoylmethylene)-isonicotinic hydrazone) was tested for in vivo inhibition of CD4^+ T cell-mediatedgraft-versus-host disease lethality. (B6×CBA)F1 irradiated recipient mice were transplanted by i.v. injection with haploidentical (B6×DBA/2)F1 T cell-depleted bone marrow (ATBM) and CD4^+ T cells (3×10^6), which induces lethal graft-versus-host disease (GVHD). TJU103 was administered by i.v. injections at a dose of 100 μg in 0.5% DMSO on days 0, 3, and 6 post-transplant. […] Median survival times were calculated and statistical comparisons were performed by Wilcoxin signed-rank non-parametric analysis using SYSTAT 5.2 software.

[3] = target: T1, CD4-MHC class II binding (Homo sapiens, UniProt P01730); assay: CD4-MHC class II cell adhesion (rosette formation) assay, CD4-transfected COS-7 cells with Raji B cells; type: cell-based; conditions: 100 μM compound, FIG. 2
T1 construct: expressed in transfected cells; host or cells: COS-7 cells (CD4, plasmid T4-pcDNA3); Raji B cells (endogenous MHC class II)
Text: The capacity of a compound to inhibit the interaction of CD4 and class II MHC gene products can be determined by a cell rosetting assay. A cell line, such as Cos-7, Cos-1 or the like, can be transiently transfected with a plasmid bearing a human CD4 cDNA operably linked to a promoter. In an alternative embodiment a COS-1 cell line can be stably transformed with a human CD4 expression plasmid. The human CD4expressing cells and a human class II MHC expressing cell are mixed so that cellular rosettes are formed.
No inhibition of resetting was observed when CD8-pcDNA3 transfected cells were rosetted with Raji cells, which also express MHC, class I products.
The sequence of human CD4 CDNA is given in Maddon, P. J. et al., 1985, CELL 42:93-104, which sequence is hereby incorporated by reference in its entirety. Maddon et al. refers to human CD4 as "T4." The plasmid T4-pMV7, containing the human CD4 cDNA is available from the AIDS Research and Reference Reagent Program, Division of AIDS, NIAID, NIH (McKesson BioServices, Rockville, Md.). The 3.0 Kb Eco R1 fragment of T4-pMV7 contains the 1.5 Kb CD4 CDNA.
For transfection of COS-7 cells, a CD4-expression plasmid T4-pcDNA3, was constructed by subcloning the 3.0 Kb Eco R1 fragment of T4-pMV7 into the EcoRI site of the mammalian expression vector pcDNA3 (INVITROGEN). Transfection was accomplished by DOSPER liposomal transfection reagent (BOEHRINGER MANNHEIM), by the following modification of the manufacturer's protocol.
9. Determine the CD4 expression levels as a measure of transfection efficiency by flow cytometry analysis. Usually between 30% and 40% of transfected COS-7 cells expressed human CD4 as defined by immunofluorescence binding assay for the interaction between CD4 and class II MHC proteins in the presence of organic chemicals by rosette formation: Raji B cells 10^7 in 1 ml of RPMI medium with 10% FCS and […] were added to each well 48 h post-transfection and incubated with transfected COS-7 cells in the presence of the test compound (individually 200 μM) at 37° C. for 1 h. Following incubation, wells were washed five or six times by dropping RPMI medium with FCS into wells. Rosette formation between Raji cells and transfected COS-7 cells was scored microscopically at 100-fold magnification. The number of rosette containing more than five Raji cells was counted in 10 random optical fields in each individual well; 300-400 rosettes per well were counted as the positive control for rosette formation without any inhibition in the absence of any chemicals. The inhibition activity for rosette formation for each chemical was determined by the ratio of the number of rosettes obtained in the presence of this chemical to the number of rosettes in the positive control. […]

[4] = system: C57B1/6 mice challenged with C57B1/6.H-2^bm12 tail skin; assay: Class II MHC disparate skin allograft rejection (CD4+ T cell-mediated B6 anti-bm12 response); type: in vivo, mouse; conditions: TJU103 single i.v. 100 μg in 0.5% DMSO 3 hours before transplantation, vs 0.5% DMSO diluent, FIG. 6
Description: The lead organic compounds were tested for inhibition of CD4^+ T cell-mediated skin allograft rejection using the MHC class II disparate model of C57B1/6 mice challenged with C57B1/6.H-2^bm12 tail skin. Following a modified method of Bailey and Usama (1960, Transplant. Bull. 7:424-425), donor tail skin grafts (0.25 cm×0.5 cm) were transplanted onto the ventral side of the tail of the recipient mouse, covered with a glass tube and held into position with short strips of adhesive tape for 2 days. The tubes were removed and the grafts monitored every other day for up to 80 days. […] Syngeneic grafts were also transplanted as negative controls for rejection. Median survival times (MST) were calculated and statistical comparisons were performed by Wilcoxin signed-rank non-parametric analysis utilizing SYSTAT 5.2 software.
The compounds were injected 3 hours before transplantation at a dosage of 50 μg in 0.2 ml 0.25% DMSO. […] Each group contained 4 animals except the TJU102 group, which contained 5 animals.
The lead organic compound TJU103 (N-(3-indoylmethylene)-isonicotinic hydrazone) was tested for inhibition of CD4^+ T cell-mediated skin allograft rejection using the CD4^+ T cell-mediated B6 anti-bm12 response. […] Median survival times were calculated and statistical comparisons were performed by Wilcoxin signed-rank non-parametric analysis using SYSTAT 5.2 software.

[5] = system: B6 recipient mice with bm1 tail skin allografts; assay: Class I MHC disparate skin allograft survival (CD8+ T cell-mediated B6 anti-bm1 response); type: in vivo, mouse; conditions: TJU103 single i.v. 100 μg in 0.5% DMSO 3 hours before transplantation, vs 0.5% DMSO diluent, FIG. 7
Description: The lead organic compound TJU103 (N-(3-indoylmethylene)-isonicotinic hydrazone) was tested for inhibition of CD8^+ T-cell mediated allograft survival using the CD8^+ T cell-mediated B6 anti-bm1 response. A single i.v. injection of 100 μg of TJU103 in 0.5% DMSO was administered into B6 recipient mice 3 hours before transplantation of MHC class I-disparate bm1 tail skin allografts following a modified method of Bailey and Usama (1960, Transplant Bull. 7:424 425). A group of mice were treated with anti-CD8 monoclonal antibody (2.43) as a […]. Median survival times were calculated and statistical comparisons were performed by Wilcoxin signed-rank non-parametric analysis using SYSTAT 5.2 software.

Compound | severity of EAE [1] | median survival time of GVHD recipients [2] | inhibition at 100 µM [3] | survival time of bm12 allografts [4] | survival time of bm1 allografts [5]
O=C(NN=Cc1c[nH]c2ccccc12)c1ccncc1 [TJU103, N-(3-indoylmethylene)-isonicotinic hydrazone] | statistically significant effect | significantly prolongs the median survival time; also recorded: effective in prolonging median survival time | > 40% | prolongs survival time of the allografts; also recorded: effective in prolonging the median survival time of the allografts | does not prolong survival time of the allografts
Cn1c(CSCc2nc(-c3ccc(Cl)cc3)cs2)nnc1SCc1ccc(Cl)cc1 [TJU101, 5-(4-chlorobenzylthio)-3-{[(4-chlorophenyl)-2-thiazolyl]methylthiomethyl}-4-methyl-1,2,4-triazole] | – | – | > 40% | – | –
COc1ccc(-c2cn3c(n2)sc2ccccc23)cc1 [TJU102] | – | – | > 40% | – | –
O=C(Nc1ccc(Cl)cc1Cl)c1nc(Cn2cncn2)n[nH]1 [TJU104, N-(2,4-dichlorophenyl)-3-(1,2,4-triazol-1-ylmethyl)-1,2,4-triazole-5-carboxamide] | statistically significant effect | – | > 40% | – | –
